Data from ChEMBL document CHEMBL3046579, “Synthesis, anticancer and MRP1 inhibitory activities of 4-alkyl/aryl-3,5-bis(carboethoxy/carbomethoxy)-1,4-dihydro-2,6-dimethylpyridines” (Med Chem Res, 2013).

Key:
[1] = Cytotoxicity against Homo sapiens (human) HSG cells; format: functional, cell-based
[2] = tested on: HSC-2; assay: Cytotoxicity against Homo sapiens (human) HSC2 cells; format: functional, cell-based
[3] = tested on: HT-29; assay: Cytotoxicity against Homo sapiens (human) HT-29 cells assessed as cell viability after 48 hr by MTT assay; format: functional, cell-based
[4] = Cytotoxicity against Homo sapiens (human) MDA-MB cells assessed as cell viability after 48 hr by MTT assay; format: functional, cell-based
[5] = biological target: T1, Multidrug resistance-associated protein 1 (Homo sapiens, UniProt P33527); assay: Inhibition of Homo sapiens (human) MRP1 expressed in Sf9 cell membranes assessed as decrease in N-ethyl-maleimide-glutathione-induced inorganic phosphate production at 1 to 1000 uM by spectrophotometric analysis in presence of glutathione
[6] = biological target: T1, Multidrug resistance-associated protein 1; assay: Inhibition of Homo sapiens (human) MRP1 expressed in Sf9 cell membranes assessed as decrease in N-ethyl-maleimide-glutathione-induced inorganic phosphate production by spectrophotometric analysis in presence of glutathione
[7] = biological target: T2, MRP1 (Homo sapiens, UniProt P33527); assay: Inhibition of Homo sapiens (human) MRP1 expressed in Sf9 cell membranes assessed as decrease in N-ethyl-maleimide-glutathione-induced inorganic phosphate production at 50 uM by spectrophotometric analysis in presence of glutathione relative to control; conditions: Sf9 cell membranes expressing human MRP1, probe N-ethyl-maleimide-glutathione, read-out: Imax
[8] = biological target: T2, MRP1; assay: Inhibition of Homo sapiens (human) MRP1 expressed in Sf9 cell membranes assessed as decrease in N-ethyl-maleimide-glutathione-induced inorganic phosphate production at 10 uM by spectrophotometric analysis in presence of glutathione relative to control; conditions: Sf9 cell membranes expressing human MRP1, probe N-ethyl-maleimide-glutathione
[9] = Homo sapiens, HT-29, 48 h, read-out: IC50
[10] = Homo sapiens, MDA-MB, 48 h, read-out: IC50

T1 sequence (P33527 whole entry): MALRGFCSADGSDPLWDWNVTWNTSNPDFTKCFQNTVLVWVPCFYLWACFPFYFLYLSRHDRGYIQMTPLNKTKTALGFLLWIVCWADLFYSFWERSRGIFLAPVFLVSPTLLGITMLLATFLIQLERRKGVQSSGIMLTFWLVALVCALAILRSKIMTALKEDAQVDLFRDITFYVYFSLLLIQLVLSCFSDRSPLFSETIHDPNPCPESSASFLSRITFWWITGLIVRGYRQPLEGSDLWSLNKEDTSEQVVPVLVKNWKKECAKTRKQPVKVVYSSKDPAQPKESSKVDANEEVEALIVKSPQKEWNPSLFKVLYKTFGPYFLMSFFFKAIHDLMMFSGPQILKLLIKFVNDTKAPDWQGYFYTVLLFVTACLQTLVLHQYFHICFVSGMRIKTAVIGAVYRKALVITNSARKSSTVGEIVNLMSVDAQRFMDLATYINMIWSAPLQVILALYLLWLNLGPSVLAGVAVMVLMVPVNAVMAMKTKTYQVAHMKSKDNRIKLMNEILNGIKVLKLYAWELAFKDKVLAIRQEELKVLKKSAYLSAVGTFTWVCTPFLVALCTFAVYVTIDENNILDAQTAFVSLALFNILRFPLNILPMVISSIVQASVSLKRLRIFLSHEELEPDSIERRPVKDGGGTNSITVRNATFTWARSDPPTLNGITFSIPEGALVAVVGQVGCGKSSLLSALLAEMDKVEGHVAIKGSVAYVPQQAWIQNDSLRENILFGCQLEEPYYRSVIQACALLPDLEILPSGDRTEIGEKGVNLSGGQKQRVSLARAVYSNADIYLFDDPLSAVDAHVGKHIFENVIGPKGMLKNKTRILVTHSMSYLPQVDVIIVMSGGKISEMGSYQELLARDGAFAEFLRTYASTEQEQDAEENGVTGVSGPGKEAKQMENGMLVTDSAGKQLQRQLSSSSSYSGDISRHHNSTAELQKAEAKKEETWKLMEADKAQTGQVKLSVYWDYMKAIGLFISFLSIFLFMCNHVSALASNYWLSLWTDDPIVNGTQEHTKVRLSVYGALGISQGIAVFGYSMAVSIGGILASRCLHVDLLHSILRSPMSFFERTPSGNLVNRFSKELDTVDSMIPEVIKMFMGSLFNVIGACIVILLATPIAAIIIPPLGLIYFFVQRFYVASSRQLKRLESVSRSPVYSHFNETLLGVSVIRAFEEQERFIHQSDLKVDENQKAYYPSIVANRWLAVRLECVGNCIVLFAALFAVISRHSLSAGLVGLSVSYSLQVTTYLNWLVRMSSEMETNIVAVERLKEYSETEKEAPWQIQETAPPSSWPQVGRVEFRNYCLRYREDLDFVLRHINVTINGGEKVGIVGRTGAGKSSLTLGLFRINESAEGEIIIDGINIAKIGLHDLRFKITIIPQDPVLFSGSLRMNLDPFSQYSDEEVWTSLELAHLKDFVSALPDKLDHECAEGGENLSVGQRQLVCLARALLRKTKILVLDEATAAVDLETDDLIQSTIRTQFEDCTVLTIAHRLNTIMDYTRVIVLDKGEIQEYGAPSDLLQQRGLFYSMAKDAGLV
T2 sequence (P33527 whole entry): as above

inhibition (INH) [5] | Compound | IC50 [3, 9] [µM] | IC50 [4, 10] [µM] | IC50 ([3]; ht-29) | IC50 ([4]; mda-mb) | also measured
– | CC1=C(C(=O)c2ccccc2)C(c2ccccc2Cl)C(C(=O)c2ccccc2)=C(C)N1 | – | – | – | – | IC50 [1]: 28 µM; IC50 [2]: 7 µM
– | CCOC(=O)C1=C(C)NC(C)=C(C(=O)OCC)C1c1ccc(C)cc1 | 310 | 500 | – | – | –
– | COC(=O)C1=C(C)NC(C)=C(C(=O)OC)C1c1ccccc1 | – | – | Not Active | Not Active | –
Not Active | COC(=O)C1=C(C)NC(C)=C(C(=O)OC)C1c1ccc(C)cc1 | – | 500 | Not Active | – | –
– | CCCCC1C(C(=O)OC)=C(C)NC(C)=C1C(=O)OC | 500 | – | – | Not Active | –
– | CCOC(=O)C1=C(C)NC(C)=C(C(=O)OCC)C1c1ccc(Cl)cc1 | 262 | 268 | – | – | IC50 [6]: 16 µM; inhibition at 50 µM [7]: 65%; inhibition at 10 µM [8]: 47%
Not Active | CCCCC1C(C(=O)OCC)=C(C)NC(C)=C1C(=O)OCC | – | 350 | Not Active | – | –
– | CC1=C(C(=O)c2ccccc2)C(c2ccccc2C(F)(F)F)C(C(=O)c2ccccc2)=C(C)N1 | – | – | – | – | IC50 [1]: 8.7 µM; IC50 [2]: 8.7 µM
Not Active | CCOC(=O)C1=C(C)NC(C)=C(C(=O)OCC)C1c1ccc(OC)cc1 | – | 331 | Not Active | – | –
Not Active | COC(=O)C1=C(C)NC(C)=C(C(=O)OC)C1c1ccc(Cl)cc1 | – | 460 | Not Active | – | –
– | CCOC(=O)C1=C(C)NC(C)=C(C(=O)OCC)C1c1ccccc1 | – | – | Not Active | Not Active | –
– | CCCC1C(C(=O)OC)=C(C)NC(C)=C1C(=O)OC | – | – | Not Active | Not Active | –
Not Active | CCCC1C(C(=O)OCC)=C(C)NC(C)=C1C(=O)OCC | – | 500 | Not Active | – | –
– | COC(=O)C1=C(C)NC(C)=C(C(=O)OC)C1c1ccc(OC)cc1 | 452 | – | – | Not Active | –
Not Active | CCOC(=O)C1=C(C)NC(C)=C(C(=O)OCC)C1c1cccc([N+](=O)[O-])c1 | 500 | 244 | – | – | –
